In patent US9376420B2 (YUHAN CORPORATION, priority 2012, dated 2016):

Target: T1, human LXRβ (Homo sapiens, UniProt P55055)
T1 construct: expressed in transfected cells; host or cells: HEK293 cells (ATCC CRL-1573), transient transfection with pFA-hLXRβ/GAL4 and pUAS
T1 sequence (P55055 222-460 limits assumed): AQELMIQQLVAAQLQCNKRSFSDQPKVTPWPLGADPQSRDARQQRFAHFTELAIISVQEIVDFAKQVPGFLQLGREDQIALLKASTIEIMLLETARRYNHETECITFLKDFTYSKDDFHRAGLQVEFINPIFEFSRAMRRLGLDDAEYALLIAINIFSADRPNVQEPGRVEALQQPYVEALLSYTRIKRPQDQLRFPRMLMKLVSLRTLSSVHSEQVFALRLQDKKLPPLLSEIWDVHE
Experiment: Assay for Transcriptional Activity of LXRβ (GAL4-hLXRβ LBD luciferase reporter, transient transfection)
Assay type: cell-based
Conditions: HEK293 cells transfected with pFA-hLXRβ/GAL4 and pUAS, 24 hours; for Emax: fold value in comparison with the control (DMSO-treated group); for EC50: increase of transcriptional activity of LXRβ, average of three independent tests
Source text: The ligand-binding domain (LBD) cDNA of human LXRβ was inserted into an expression vector (pFA, Stratagene, USA) site adjacent to the yeast GAL4 transcription factor DNA binding domain to prepare an expression construct (pFA-hLXRβ/GAL4) (Willey et al., Genes & Development 9 1033-1045 (1995). The GAL4-responsive luciferase reporter plasmid, i.e., pUAS (Stratagene, USA), contained five copies of the GAL4 response element placed adjacent to the promoter and the luciferase reporter gene. The pFA-hLXRβ/GAL4 and pUAS were introduced into mammalian cells through transient transfection, followed by measuring the transcriptional activity of LXRβ.
HEK293 cells (human kidney cells, sATCC, CRL-1573) were incubated at a T-75 flask containing a DMEM supplemented with 10% fetal bovine serum (FBS) in a 37° C., until they reach about 70˜80% confluency. The culture media containing the cells was added to each well of a 96-well plate in a density of 5×10^4 cells per well. The pFA-hLXRβ/GAL4 and pUAS was transfected to the cells using a cationic-lipid transfection reagent (Lipofectamine™, Invitrogen), through culturing at 37° C. for 3 hours for transient transfection according to the manufacturer's instruction. The test compounds were dissolved in dimethyl sulfoxide (DMSO) in the concentrations of 50, 30, 10, 3, 1, 0.3, 0.1, 0.03, and 0.01 μM and then cells were treated with the prepared compound-containing solution (100 μl). The cells were incubated at 37° C. for 24 hours. After removal of the medium from each well, the lysis buffer (25 mM Tricine pH7.8, 2 mM DTT, 2 mM EGTA, 10% glycerol, 1% Triton X-100) was added with the amount of 20 μl per each well, and the plate was stirred at room temperature for 15 minutes. The luciferase reagent (prepared by adding 10 ml of the luciferase buffer (Promega) to 1 vial of the luciferase substrate (Promega)) was added to each well with the amount of 100 μl per well, followed by assaying with a luminometer according to the manufacturer's instruction.
The dose-response curve for calculating the EC50 values of the test compounds on the increase of transcriptional activity of LXRβ was prepared using the known LXR agonist (i.e., N-(2,2,2-trifluoro-ethyl)-N-[4-(2,2,2-trifluoro-1-hydroxy-1-trifluoromethyl-ethyl)-phenyl]-benzenesulfonamide) as a positive control and the vehicle (DMSO) as a negative control. The dose-response curve was produced from the 9-point curve having different concentrations at a 1/2 log unit. The EC50 value of a test compound, which is defined as a concentration for initiating the reaction corresponding to the half value between the Top value (i.e., the maximum value) and the Bottom value (baseline), was calculated according to the following equation. Y=Bottom+(Top-Bottom)/(1+10^((log EC50-X)*Hill Slope)).
In the above equation, Y is the observed value; X is the log concentration; Hill Slope is the slope of the curve; and Top and Bottom are the maximum value of test compound and the baseline value, respectively.
The following tables 1 and 2 show the EC50 values of the test compounds measured as in the above. In the tables 1 and 2, each EC50 value represents an average value obtained from three independent tests.

Fc1ccc(N2N=C(C(F)(F)C(F)(F)F)CC2c2cccc(-c3ccc(C(F)(F)F)nc3)c2)c(F)c1 (stereo not drawn) [Example 72, 1-(2,4-difluoro-phenyl)-3-pentafluoroethyl-5-(3-(2-trifluoromethyl-pyridin-5-yl)-phenyl)-4,5-dihydro-1H-pyrazole]
Emax: 9 fold
EC50: 15200 nM

COc1ncc(-c2cccc(C3CC(C(F)(F)C(F)(F)F)=NN3c3ccc(F)cc3F)c2)cc1C=O (stereo not drawn) [Example 73, 1-(2,4-difluoro-phenyl)-5-(3-(3-formyl-2-methoxy-pyridin-5-yl)-phenyl)-3-pentafluoroethyl-4,5-dihydro-1H-pyrazole]
Emax: 13 fold
EC50: 1070 nM

Fc1cncc(-c2cccc(C3CC(C(F)(F)C(F)(F)F)=NN3c3ccc(F)cc3F)c2)c1 (stereo not drawn) [Example 74, 1-(2,4-difluoro-phenyl)-5-(3-(5-fluoro-pyridin-3-yl)-phenyl)-3-pentafluoroethyl-4,5-dihydro-1H-pyrazole]
Emax: 29 fold
EC50: 2960 nM

COc1ncccc1-c1cccc(C2CC(C(F)(F)C(F)(F)F)=NN2c2ccc(F)cc2F)c1 (stereo not drawn) [Example 75, 1-(2,4-difluoro-phenyl)-5-(3-(2-methoxy-pyridin-3-yl)-phenyl)-3-pentafluoroethyl-4,5-dihydro-1H-pyrazole]
Emax: 63 fold
EC50: 1120 nM

CS(=O)(=O)c1cc(-c2cccc(C3CC(C(F)(F)C(F)(F)F)=NN3c3ccc(F)cc3F)c2)cc(F)c1CO (stereo not drawn) [Example 76, 1-(2,4-difluoro-phenyl)-5-[3′-fluoro-4′-(hydroxymethyl)-5′-(methylsulfonyl)-biphenyl-3-yl]-3-pentafluoroethyl-4,5-dihydro-1H-pyrazole]
Emax: 84 fold
EC50: 189 nM

CSc1ccc(-c2cccc(C3CC(C(F)(F)C(F)(F)F)=NN3c3ccc(F)cc3F)c2)cn1 (stereo not drawn) [Example 77, 1-(2,4-difluoro-phenyl)-5-[3-(2-methylsulfanyl-pyridin-5-yl)-phenyl]-3-pentafluoroethyl-4,5-dihydro-1H-pyrazole]
Emax: 57 fold
EC50: 7180 nM

N#Cc1ccc(-c2cccc(C3CC(C(F)(F)C(F)(F)F)=NN3c3ccc(F)cc3F)c2)cn1 (stereo not drawn) [Example 78, 5-[3-(2-cyano-pyridin-5-yl)-phenyl]-1-(2,4-difluoro-phenyl)-3-pentafluoroethyl-4,5-dihydro-1H-pyrazole]
Emax: 25 fold
EC50: 2500 nM

O=Cc1ccc(-c2cccc(C3CC(C(F)(F)C(F)(F)F)=NN3c3ccc(F)cc3F)c2)nc1 (stereo not drawn) [Example 79, 1-(2,4-difluoro-phenyl)-5-[3-(5-formyl-pyridin-2-yl)-phenyl]-3-pentafluoroethyl-4,5-dihydro-1H-pyrazole]
Emax: 46 fold
EC50: 747 nM

CS(=O)(=O)c1ccc(-c2cccc(C3CC(C(F)(F)C(F)(F)F)=NN3c3ccc(F)cc3F)c2)nc1 (stereo not drawn) [Example 81, 1-(2,4-difluoro-phenyl)-5-[3-(5-methanesulfonyl-pyridin-2-yl)-phenyl]-3-pentafluoroethyl-4,5-dihydro-1H-pyrazole]
Emax: 78 fold
EC50: 1400 nM

CN(CCCS(=O)(=O)c1ccc(-c2cccc(C3CC(C(F)(F)C(F)(F)F)=NN3c3ccc(F)cc3F)c2)cc1)C(=O)OC(C)(C)C (stereo not drawn) [Example 86, 5-{4′-[3-(N-BOC-N-methyl-amino)-propane-1-sulfonyl]-biphenyl-3-yl}-1-(2,4-difluoro-phenyl)-3-pentafluoroethyl-4,5-dihydro-1H-pyrazole]
Emax: 45 fold
EC50: 958 nM

CN(C)S(=O)(=O)c1cccc(-c2cccc(C3CC(C(F)(F)C(F)(F)F)=NN3c3ccc(F)cc3F)c2)c1 (stereo not drawn) [Example 87, 1-(2,4-difluoro-phenyl)-5-(3′-dimethylsulfamoyl-biphenyl-3-yl)-3-pentafluoroethyl-4,5-dihydro-1H-pyrazole]
Emax: 46 fold
EC50: 91 nM

CN(CCO)S(=O)(=O)c1ccc(-c2cccc(C3CC(C(F)(F)C(F)(F)F)=NN3c3ccc(F)cc3F)c2)cc1 (stereo not drawn) [Example 88, 1-(2,4-difluoro-phenyl)-5-{4′-[(2-hydroxy-ethyl)-methyl-sulfamoyl]-biphenyl-3-yl}-3-pentafluoroethyl-4,5-dihydro-1H-pyrazole]
Emax: 72 fold
EC50: 819 nM

CNCCCS(=O)(=O)c1cccc(-c2cccc(C3CC(C(F)(F)C(F)(F)F)=NN3c3ccc(F)cc3F)c2)c1 (stereo not drawn) [Example 89, 1-(2,4-difluoro-phenyl)-5-{3′-[3-(N-methyl-amino)-propane-1-sulfonyl]-biphenyl-3-yl}-3-pentafluoroethyl-4,5-dihydro-1H-pyrazole]
Emax: 106 fold
EC50: 382 nM

COc1ncc(-c2cccc(C3CC(C(F)(F)C(F)(F)F)=NN3c3ccc(F)cc3F)c2)cc1CO (stereo not drawn) [Example 90, 1-(2,4-difluoro-phenyl)-5-[3-(5-hydroxymethyl-6-methoxy-pyridin-3-yl)-phenyl]-3-pentafluoroethyl-4,5-dihydro-1H-pyrazole]
Emax: 33 fold
EC50: 2650 nM

OCc1ccc(-c2cccc(C3CC(C(F)(F)C(F)(F)F)=NN3c3ccc(F)cc3F)c2)nc1 (stereo not drawn) [Example 91, 1-(2,4-difluoro-phenyl)-5-[3-(5-hydroxymethyl-pyridin-2-yl)-phenyl]-3-pentafluoroethyl-4,5-dihydro-1H-pyrazole]
Emax: 44 fold
EC50: 1460 nM

CS(=O)(=O)c1ccc(-c2cccc(C3CC(C(F)(F)C(F)(F)F)=NN3c3ccc(F)cc3F)c2)cn1 (stereo not drawn) [Example 92, 1-(2,4-difluoro-phenyl)-5-[3-(6-methanesulfonyl-pyridin-3-yl)-phenyl]-3-pentafluoroethyl-4,5-dihydro-1H-pyrazole]
Emax: 81 fold
EC50: 344 nM

Fc1ccc(N2N=C(C(F)(F)C(F)(F)F)CC2c2cccc(-c3ccccc3)c2)c(F)c1 (stereo not drawn) [Example 94, 5-biphenyl-3-yl-1-(2,4-difluoro-phenyl)-3-pentafluoroethyl-4,5-dihydro-1H-pyrazole]
Emax: 27 fold
EC50: 19000 nM

CS(=O)(=O)N1CCN(c2cccc(C3CC(C(F)(F)C(F)(F)F)=NN3c3ccc(F)cc3F)c2)CC1 (stereo not drawn) [Example 96, 1-(2,4-difluoro-phenyl)-5-[3-(4-methanesulfonyl-piperazin-1-yl)-phenyl]-3-pentafluoroethyl-4,5-dihydro-1H-pyrazole]
Emax: 67 fold
EC50: 3360 nM

O=S(=O)(C1CC1)N1CCN(c2cccc(C3CC(C(F)(F)C(F)(F)F)=NN3c3ccc(F)cc3F)c2)CC1 (stereo not drawn) [Example 97, 5-[3-(4-cyclopropanesulfonyl-piperazin-1-yl)-phenyl]-1-(2,4-difluoro-phenyl)-3-pentafluoroethyl-4,5-dihydro-1H-pyrazole]
Emax: 69 fold
EC50: 3090 nM

CSc1ccc(-c2cccc(C3CC(C(F)(F)C(F)(F)F)=NN3c3ccccc3Cl)c2)cc1 (stereo not drawn) [Example 105, 1-(2-chloro-phenyl)-5-(4′-methylsulfanyl-biphenyl-3-yl)-3-pentafluoroethyl-4,5-dihydro-1H-pyrazole]
Emax: 55 fold
EC50: 6310 nM

CS(=O)(=O)c1ccc(-c2cccc(C3CC(C(F)(F)C(F)(F)F)=NN3c3ccccc3Cl)c2)cc1 (stereo not drawn) [Example 106, 1-(2-chloro-phenyl)-5-(4′-methylsulfonyl-biphenyl-3-yl)-3-pentafluoroethyl-4,5-dihydro-1H-pyrazole]
Emax: 85 fold
EC50: 1160 nM
